Laboratory results as given in patent US8367682B2, “Pyrimidine derivatives and their use as pesticides” (Novartis AG, priority 2006, dated 2013).

Key:
Rhipicephalus sanguineus = experiment: Activity in vitro against Rhipicephalus sanguineus (dog ticks), HTS; settings: in this test; adult ticks; concentration not given
Protocol: 2. Activity in Vitro Against Rhipicephalus sanguineus (Dog Ticks)—HTS
A clean adult tick population is used to seed a suitably formatted 96-well plate containing the test substances to be evaluated for antiparasitic activity. Each compound is tested by serial dilution in order to determine its MED. Ticks are left in contact with the test compound for 10 minutes and are then incubated at 28° C. and 80% relative humidity (RH) for 7 days, during which the test compound's effect is monitored. Acaricidal activity is confirmed if and when adult ticks are dead.

[1] = tested on: Rhipicephalus sanguineus nymphs; experiment: In-vivo test against Rhipicephalus sanguineus nymphs on Mongolian gerbils; settings: for % reduction of number of ticks: spray (or spot-on) on gerbils, vs placebo group, Abbot's formula
Protocol: 4. In-Vivo Test Against Rhipicephalus sanquineus Nymphs on Mongolian Gerbils (Meriones unguiculatus)
On day 0, gerbils are treated with the test compound at a given dose by spray (or spot-on) application. On day +1 (+2), the animals are infested with nymphs of R. sanguineus. Ticks are left on the animals until full repletion. Seven days after infestation nymphs dropped off fully engorged are collected and counted. They are kept until molting to also evaluate growth regulating activity of the test compound. Efficacy in killing (and growth regulating) is expressed as a tick number (and molted tick number) reduction in comparison with a placebo treated group, using the Abbot's formula. A tick number reduction of more than 60%, in particular more than 70%, is regarded as a minimum prerequisite for a commercial development of a compound. In addition, said killing efficacy should be put into practice with the minimal dose for safety and environmental reasons.

Ctenocephalides felis = experiment: Activity in vitro against Ctenocephalides felis (cat flea), HTS, artificial blood feeding; settings: in this test; adult fleas; concentration not given
Protocol: 3. Activity in Vitro Against Ctenocephalides felis (Cat Flea)—HTS
A mixed adult population of fleas is placed in a suitably formatted 96-well plate allowing fleas to access and feed on treated blood via an artificial feeding system. Each compound is tested by serial dilution in order to determine its MED. Fleas are fed on treated blood for 24 hours, after which the compound's effect is recorded. Insecticidal activity is determined on the basis of the number of dead fleas recovered from the feeding system.

Nc1c(Oc2ccc(F)c(C(F)(F)F)c2)nc(-c2ccccc2)nc1Oc1ccc(F)c(C(F)(F)F)c1 [2-phenyl-4,6-bis-(4-fluoro-3-[trifluoromethyl]phenoxy)-5-amino-pyrimidine]
acaricidal efficacy (Rhipicephalus sanguineus): does not show any significant acaricidal efficacy
killing efficacy ([1]; at these low concentrations (doses of the table, 3.2-10 mg/kg)): No significant killing efficacy
insecticidal efficacy (Ctenocephalides felis): does not show any significant insecticidal efficacy

COc1cccc(-c2nc(Oc3ccc(F)c(C(F)(F)F)c3)c(N)c(Oc3ccc(F)c(C(F)(F)F)c3)n2)c1 [Compound 1.7]
% reduction of number of ticks ([1]; dose 3.2 mg/kg): 91%

Cc1cccc(-c2nc(Oc3ccc(F)c(C(F)(F)F)c3)c(N)c(Oc3ccc(F)c(C(F)(F)F)c3)n2)c1 [Compound 1.9]
% reduction of number of ticks ([1]; dose 10 mg/kg): 74%

CC(C)c1cccc(-c2nc(Oc3ccc(F)c(C(F)(F)F)c3)c(N)c(Oc3ccc(F)c(C(F)(F)F)c3)n2)c1 [Compound 1.10]
% reduction of number of ticks ([1]; dose 10 mg/kg): 81%

CC(O)c1cccc(-c2nc(Oc3ccc(F)c(C(F)(F)F)c3)c(N)c(Oc3ccc(F)c(C(F)(F)F)c3)n2)c1 (stereo not shown) [Compound 1.18]
% reduction of number of ticks ([1]; dose 10 mg/kg): 85%

Cc1cc(-c2nc(Oc3ccc(F)c(C(F)(F)F)c3)c(N)c(Oc3ccc(F)c(C(F)(F)F)c3)n2)ccc1F [Compound 1.23]
% reduction of number of ticks ([1]; dose 10 mg/kg): 99%

COCc1cccc(-c2nc(Oc3ccc(F)c(C(F)(F)F)c3)c(N)c(Oc3ccc(F)c(C(F)(F)F)c3)n2)c1 [Compound 1.27]
% reduction of number of ticks ([1]; dose 3.2 mg/kg): 78%

Nc1c(Oc2ccc(F)c(C(F)(F)F)c2)nc(-c2cccc(N3CCOCC3)c2)nc1Oc1ccc(F)c(C(F)(F)F)c1 [Compound 1.30]
% reduction of number of ticks ([1]; dose 3.2 mg/kg): 79%

CN(C)c1cccc(-c2nc(Oc3ccc(F)c(C(F)(F)F)c3)c(N)c(Oc3ccc(F)c(C(F)(F)F)c3)n2)c1 [Compound 1.34, 2-(3-Dimethylamino-phenyl)-4,6-bis-(4-fluoro-3-trifluoromethyl-phenoxy)-pyrimidin-5-ylamine]
% reduction of number of ticks ([1]; dose 3.2 mg/kg): 85%

Cn1ccc2ccc(-c3nc(Oc4ccc(F)c(C(F)(F)F)c4)c(N)c(Oc4ccc(F)c(C(F)(F)F)c4)n3)cc21 [Compound 2.2]
% reduction of number of ticks ([1]; dose 3.2 mg/kg): 89%

Nc1c(Oc2ccc(F)c(C(F)(F)F)c2)nc(-c2ccc3cc[nH]c3c2)nc1Oc1ccc(F)c(C(F)(F)F)c1 [Compound 2.3]
% reduction of number of ticks ([1]; dose 3.2 mg/kg): 81%
